# Measurements reported in US5407954A, “Arylalkoxyphenoxy-imidazoline compounds” (Merrell Dow Pharmaceuticals Inc., priority 1994, dated 1995).
# Assays:
# [1] = molecular target: T1, cloned rat 5-HT2 receptor (Rattus norvegicus, UniProt P14842); experiment: Affinity for 5-HT2 receptors on transfected fibroblast cell membranes ([125I]LSD competition binding, NIH 3T3 GF-6 cells); conditions: NIH 3T3 GF-6 cell membranes, 37° C., 60 minutes, pH 7.6
# T1 construct: expressed in transfected cells; host or cells: NIH 3T3 fibroblasts, line 'GF-6'
# T1 sequence (P14842 whole entry): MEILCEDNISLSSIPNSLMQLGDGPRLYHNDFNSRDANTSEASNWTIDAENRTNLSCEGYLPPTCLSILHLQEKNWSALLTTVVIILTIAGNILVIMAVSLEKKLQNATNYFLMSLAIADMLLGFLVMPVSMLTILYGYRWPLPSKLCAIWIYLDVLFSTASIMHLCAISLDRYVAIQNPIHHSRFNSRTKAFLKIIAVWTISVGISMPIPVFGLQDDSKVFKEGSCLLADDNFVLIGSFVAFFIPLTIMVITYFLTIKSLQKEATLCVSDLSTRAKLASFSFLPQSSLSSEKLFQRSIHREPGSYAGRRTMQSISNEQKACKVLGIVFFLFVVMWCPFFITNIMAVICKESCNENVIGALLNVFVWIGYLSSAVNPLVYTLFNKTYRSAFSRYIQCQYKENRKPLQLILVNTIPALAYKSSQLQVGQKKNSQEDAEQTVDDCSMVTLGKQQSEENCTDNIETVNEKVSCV
# Description: Affinity for 5-HT2 receptor on transfected fibroblast cell membranes (partial agonist [^125 I]lysergic acid diethylamide; Elliott, M. J., Kent, A., J. Neurochem. 53: 191-196, 1989.; Peroutka, S. J., Snyder, S. H. , Molec. Pharmacol. 16: 687-699, 1979; Kadan, J. M., Krohn, A. M., Evans, M. J., Ualtz, R. L., Hartig, P. R.; J. Neurochem. 43: 601-606, 1984) is used to determine the potency of test compounds to compete with [^125 I]LSD binding to a NIH 3T3 cell line containing the cloned rat 5-HT2 receptor designated "GF-6" by its originators.[Julius, D., Huang, K. N., Livelli, T. J., Axel, R., and Jessell, T. M., Proc. Natl. Acad. Sci. USA 87:928-932, 1990]
# Confluent GF6 cell monolayers are dissociated in Versene and centrifuged at 1000 rpm for 5 minutes. The resulting pellet is homogenized in 10 volumes 0.32M sucrose using a Dounce glass homogenizer, 10 strokes. The suspension is centrifuged at 44,000×g for 15 minutes, and the pellet suspended in […] Hepes-KOH, pH 7.4, using a Polytron. The membranes are then stored at -80° C.
# The assay tubes, in triplicate, receive 20 μl of 5 nM [^125 I]LSD, 20 μl of test compound (10^-9 M to 10^-5 M or 10 μM ketanserin for nonspecific binding), 40 μl of membrane suspension (1-5 μg protein/assay tube) in a final volume of 0.1 ml of 50 mM Tris- HCl, pH 7.6. Incubations are carried out at 37° C. for 60 minutes and terminated by addition of 2 ml ice-cold assay buffer end filtered through GF/B glass fiber filters (presoaked in 0.1% polyethyleneimine). Filters are washed twice with 5 ml of cold buffer and transferred to polystyrene tubes for radioactivity determination. Protein concentration was measured using the Bradford dye binding method.
# Inhibition of [^125 I]LSD binding by a test compound is indicative of affinity for the 5HT2 receptor site. The molar concentration of a Compound which causes 50% inhibition of the binding of ligand is the IC50. The IC50 value is converted to the Ki value by the method of Cheng and Prusoff.[Cheng, Y. -C and Prusoff, Biochem. Pharmacol. 22:3099-3108, 1973].
# migraine headaches = conditions: in vivo; cited from earlier work
# 5-HT1C receptor = conditions: albeit nonselective; cited from earlier work
# migraine = conditions: in vivo; cited from earlier work
smiles,measurement,setting,value
"COc1ccc(CC(Oc2ccccc2OCc2ccccc2)C2=NCCN2)cc1 (stereo not drawn) [100,499, 2-[1-(2-benzyloxyphenoxy)-2-(4-methoxyphenyl)]ethylimidazoline]",IC50,[1],3.5 nM
"c1ccc(COc2ccccc2OC(Cc2ccccc2)C2=NCCN2)cc1 (stereo not drawn) [101,600, 2-[1-(2-benzyloxyphenoxy)-2-phenyl]ethylimidazoline]",IC50,[1],2.5 nM
"c1ccc(CCOc2ccccc2OC(Cc2ccccc2)C2=NCCN2)cc1 (stereo not drawn) [101,623, 2-(1-[2-(2-phenylethoxy)phenoxy]-2-phenyl)ethylimidazoline]",IC50,[1],14 nM
"c1ccc(CCCC(Oc2ccccc2OCc2ccccc2)C2=NCCN2)cc1 (stereo not drawn) [102,588, 2-[1-(2-benzyloxyphenoxy)-4-phenyl]butylimidazoline]",IC50,[1],167 nM
Clc1cccc(N2CCNCC2)c1 [m-chlorophenylpiperazine],inducing migraine headaches,migraine headaches,capable of inducing migraine headaches
CC[C@@H](CO)NC(=O)[C@@H]1C=C2c3cccc4c3c(cn4C)C[C@H]2N(C)C1 [methysergide],5-HT1C receptor antagonist activities,5-HT1C receptor,potent 5-HT1C receptor antagonist activities (albeit nonselective)
same,migraine prophylactic effectiveness,migraine,well established as effective migraine prophylactic agents
CN1CCC(=C2c3ccccc3CCc3sccc32)CC1 [pizotifen],5-HT1C receptor antagonist activities,5-HT1C receptor,potent 5-HT1C receptor antagonist activities (albeit nonselective)
same,migraine prophylactic effectiveness,migraine,well established as effective migraine prophylactic agents
